Measured values taken from ChEMBL document CHEMBL4321812, “Structure-based rational design of staurosporine-based fluorescent probe with broad-ranging kinase affinity for kinase panel application” (Bioorg Med Chem Lett, 2019).

Experiments:
[1] = target: Serine/threonine-protein kinase TAO1 (Homo sapiens, UniProt Q7L7X3); assay: Binding affinity to recombinant full-length N-terminal His-FLAG-GST-tagged TAOK1 (unknown origin) (1 to 314 residues) expressed in baculovirus infected Sf9 insect cells incubated for 1 hr by TR-FRET assay
[2] = target: Mitogen-activated protein kinase 15 (Homo sapiens, UniProt Q8TD08); assay: Binding affinity to recombinant full-length N-terminal His-FLAG-GST-tagged MAPK15 (unknown origin) expressed in baculovirus infected Sf9 insect cells incubated for 1 hr by TR-FRET assay
[3] = target: Interleukin-1 receptor-associated kinase 4 (Homo sapiens, UniProt Q9NWZ3); assay: Binding affinity to recombinant full-length human N-terminal his-tagged IRAK4 expressed in baculovirus expression system using IRAK1 peptide as substrate incubated for 1 hr by TR-FRET assay
[4] = target: Mitogen-activated protein kinase kinase kinase 9 (Homo sapiens, UniProt P80192); assay: Binding affinity to recombinant N-terminal His-FLAG-GST-tagged MAP3K9 (unknown origin) (110 to 422 residues) expressed in baculovirus infected Sf9 insect cells incubated for 1 hr by TR-FRET assay
Sequence of Mitogen-activated protein kinase kinase kinase 9 (P80192 whole entry, the tested form may be a part): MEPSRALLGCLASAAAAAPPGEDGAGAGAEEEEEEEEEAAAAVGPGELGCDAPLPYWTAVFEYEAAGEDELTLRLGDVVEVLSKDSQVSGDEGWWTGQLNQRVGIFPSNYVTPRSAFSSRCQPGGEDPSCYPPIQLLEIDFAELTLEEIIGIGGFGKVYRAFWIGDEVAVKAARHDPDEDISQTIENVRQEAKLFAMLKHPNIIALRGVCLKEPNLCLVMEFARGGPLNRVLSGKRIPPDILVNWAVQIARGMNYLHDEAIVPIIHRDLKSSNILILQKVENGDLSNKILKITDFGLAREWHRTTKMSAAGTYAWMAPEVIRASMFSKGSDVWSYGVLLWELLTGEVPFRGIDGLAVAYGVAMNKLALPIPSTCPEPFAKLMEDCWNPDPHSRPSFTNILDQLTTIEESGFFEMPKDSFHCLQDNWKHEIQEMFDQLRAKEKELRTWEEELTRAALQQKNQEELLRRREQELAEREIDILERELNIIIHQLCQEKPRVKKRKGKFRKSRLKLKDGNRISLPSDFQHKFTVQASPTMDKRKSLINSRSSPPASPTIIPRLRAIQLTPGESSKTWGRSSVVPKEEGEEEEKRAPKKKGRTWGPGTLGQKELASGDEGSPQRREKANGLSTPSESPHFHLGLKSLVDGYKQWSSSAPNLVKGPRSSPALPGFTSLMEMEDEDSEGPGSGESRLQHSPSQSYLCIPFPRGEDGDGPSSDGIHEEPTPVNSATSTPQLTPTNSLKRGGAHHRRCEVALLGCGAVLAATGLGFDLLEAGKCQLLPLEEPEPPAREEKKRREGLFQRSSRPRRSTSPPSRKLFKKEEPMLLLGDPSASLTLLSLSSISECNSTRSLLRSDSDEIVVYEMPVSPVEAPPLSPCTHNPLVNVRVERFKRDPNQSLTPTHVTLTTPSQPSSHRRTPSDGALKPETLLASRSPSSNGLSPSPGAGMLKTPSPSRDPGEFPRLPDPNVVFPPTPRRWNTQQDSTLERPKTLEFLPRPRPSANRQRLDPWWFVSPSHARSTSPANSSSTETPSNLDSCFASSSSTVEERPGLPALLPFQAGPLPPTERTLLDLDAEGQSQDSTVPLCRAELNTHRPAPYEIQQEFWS

[5] = target: RAC-gamma serine/threonine-protein kinase (Homo sapiens, UniProt Q9Y243); assay: Binding affinity to recombinant full-length N-terminal His-FLAG-GST-tagged AKT3 (unknown origin) (108 to 479 residues) expressed in baculovirus infected Sf9 insect cells incubated for 1 hr by TR-FRET assay
[6] = target: cAMP-dependent protein kinase catalytic subunit gamma (Homo sapiens, UniProt P22612); assay: Binding affinity to recombinant full-length N-terminal His-FLAG-GST-tagged PRKACG (unknown origin) expressed in baculovirus infected Sf9 insect cells incubated for 1 hr by TR-FRET assay
Sequence of cAMP-dependent protein kinase catalytic subunit gamma (P22612 whole entry, the tested form may be a part): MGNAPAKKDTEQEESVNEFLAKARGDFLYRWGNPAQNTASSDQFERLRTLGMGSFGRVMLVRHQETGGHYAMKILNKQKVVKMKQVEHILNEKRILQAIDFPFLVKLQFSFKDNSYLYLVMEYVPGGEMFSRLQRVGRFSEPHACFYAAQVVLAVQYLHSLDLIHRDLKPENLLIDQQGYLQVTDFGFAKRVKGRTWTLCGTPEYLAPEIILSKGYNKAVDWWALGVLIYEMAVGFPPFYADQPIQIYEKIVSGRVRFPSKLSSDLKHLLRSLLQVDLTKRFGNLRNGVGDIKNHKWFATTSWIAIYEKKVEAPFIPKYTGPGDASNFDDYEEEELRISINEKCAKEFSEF

[7] = target: Tyrosine-protein kinase Mer (Homo sapiens, UniProt Q12866); assay: Binding affinity to recombinant full-length N-terminal His-FLAG-GST-tagged MERTK (unknown origin) (528 to 999 residues) expressed in baculovirus infected Sf9 insect cells incubated for 1 hr by TR-FRET assay
[8] = target: Vascular endothelial growth factor receptor 2 (Homo sapiens, UniProt P35968); assay: Binding affinity to recombinant human full length N-terminal GST-tagged KDR (790 to 1356 residues) expressed in baculovirus expression system using CSKtide as substrate incubated for 1 hr by TR-FRET assay
Sequence of Vascular endothelial growth factor receptor 2 (P35968 whole entry, the tested form may be a part): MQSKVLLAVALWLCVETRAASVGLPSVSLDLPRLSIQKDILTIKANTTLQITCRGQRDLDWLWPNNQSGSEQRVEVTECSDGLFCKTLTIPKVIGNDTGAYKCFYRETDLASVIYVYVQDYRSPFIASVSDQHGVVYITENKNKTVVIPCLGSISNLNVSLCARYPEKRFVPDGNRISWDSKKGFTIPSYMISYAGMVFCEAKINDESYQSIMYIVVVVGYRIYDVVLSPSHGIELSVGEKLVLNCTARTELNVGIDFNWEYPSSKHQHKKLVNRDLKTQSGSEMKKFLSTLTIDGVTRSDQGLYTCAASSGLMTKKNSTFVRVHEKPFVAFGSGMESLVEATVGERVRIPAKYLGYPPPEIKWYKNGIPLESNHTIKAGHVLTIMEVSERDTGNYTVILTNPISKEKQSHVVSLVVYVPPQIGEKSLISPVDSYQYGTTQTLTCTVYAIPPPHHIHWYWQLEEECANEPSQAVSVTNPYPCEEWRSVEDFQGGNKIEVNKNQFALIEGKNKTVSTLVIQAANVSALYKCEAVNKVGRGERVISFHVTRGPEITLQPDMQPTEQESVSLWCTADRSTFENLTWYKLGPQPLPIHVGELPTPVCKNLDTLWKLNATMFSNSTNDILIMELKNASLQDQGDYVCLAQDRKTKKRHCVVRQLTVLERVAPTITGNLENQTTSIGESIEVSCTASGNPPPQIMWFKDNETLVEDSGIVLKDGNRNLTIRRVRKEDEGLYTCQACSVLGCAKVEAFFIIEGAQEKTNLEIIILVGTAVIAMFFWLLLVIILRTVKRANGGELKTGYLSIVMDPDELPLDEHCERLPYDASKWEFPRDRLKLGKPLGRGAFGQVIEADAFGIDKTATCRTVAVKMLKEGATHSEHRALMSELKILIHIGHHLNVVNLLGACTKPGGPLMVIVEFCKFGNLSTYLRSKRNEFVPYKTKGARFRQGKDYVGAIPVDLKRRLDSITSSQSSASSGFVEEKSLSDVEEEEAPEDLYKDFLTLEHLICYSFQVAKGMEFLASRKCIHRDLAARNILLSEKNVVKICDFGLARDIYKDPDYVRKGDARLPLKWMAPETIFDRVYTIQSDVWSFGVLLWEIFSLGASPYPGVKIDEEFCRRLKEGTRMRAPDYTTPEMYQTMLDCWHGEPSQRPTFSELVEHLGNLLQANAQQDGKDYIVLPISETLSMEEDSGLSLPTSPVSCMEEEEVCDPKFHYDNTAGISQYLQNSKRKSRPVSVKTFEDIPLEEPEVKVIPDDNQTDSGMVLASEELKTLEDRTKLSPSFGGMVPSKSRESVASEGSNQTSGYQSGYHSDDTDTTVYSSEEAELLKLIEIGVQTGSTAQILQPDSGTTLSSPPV

[9] = target: Serine/threonine-protein kinase 17A (Homo sapiens, UniProt Q9UEE5); assay: Binding affinity to recombinant full length N-terminal His-FLAG-GST-tagged STK17A (unknown origin) expressed in baculovirus infected Sf9 insect cells incubated for 1 hr by TR-FRET assay
Sequence of Serine/threonine-protein kinase 17A (Q9UEE5 whole entry): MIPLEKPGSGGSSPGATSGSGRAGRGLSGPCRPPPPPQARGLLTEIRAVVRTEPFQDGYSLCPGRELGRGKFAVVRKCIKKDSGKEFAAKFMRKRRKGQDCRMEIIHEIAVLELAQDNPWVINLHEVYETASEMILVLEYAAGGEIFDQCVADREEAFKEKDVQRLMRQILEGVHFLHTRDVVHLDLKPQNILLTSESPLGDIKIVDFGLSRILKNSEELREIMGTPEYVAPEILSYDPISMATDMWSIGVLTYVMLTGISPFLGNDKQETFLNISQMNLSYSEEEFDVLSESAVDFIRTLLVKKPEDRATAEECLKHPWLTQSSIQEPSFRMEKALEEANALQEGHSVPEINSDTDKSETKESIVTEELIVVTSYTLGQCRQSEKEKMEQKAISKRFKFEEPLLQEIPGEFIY

[10] = target: AMP-activated protein kinase (AMPK) alpha-1/beta-1/gamma-1 (Homo sapiens, UniProt P54619+Q13131+Q9Y478); assay: Binding affinity to recombinant human full-length GST N-Terminal tagged-AMPK alpha1/N-Terminal GST tagged-AMPK beta1/N-Terminal his-tagged AMPK gamma1 expressed in baculovirus expression system incubated for 1 hr by TR-FRET assay
[11] = target: Leukocyte tyrosine kinase receptor (Homo sapiens, UniProt P29376); assay: Binding affinity to recombinant full-length N-terminal His-FLAG-GST-tagged LTK (unknown origin) (498 to 796 residues) expressed in baculovirus infected Sf9 insect cells incubated for 1 hr by TR-FRET assay
[12] = target: Serine/threonine-protein kinase TBK1 (Homo sapiens, UniProt Q9UHD2); assay: Binding affinity to recombinant human full length N-terminal GST-tagged TBK1 expressed in baculovirus expression system using CKtide as substrate incubated for 1 hr by TR-FRET assay
Sequence of Serine/threonine-protein kinase TBK1 (Q9UHD2 whole entry, the tested form may be a part): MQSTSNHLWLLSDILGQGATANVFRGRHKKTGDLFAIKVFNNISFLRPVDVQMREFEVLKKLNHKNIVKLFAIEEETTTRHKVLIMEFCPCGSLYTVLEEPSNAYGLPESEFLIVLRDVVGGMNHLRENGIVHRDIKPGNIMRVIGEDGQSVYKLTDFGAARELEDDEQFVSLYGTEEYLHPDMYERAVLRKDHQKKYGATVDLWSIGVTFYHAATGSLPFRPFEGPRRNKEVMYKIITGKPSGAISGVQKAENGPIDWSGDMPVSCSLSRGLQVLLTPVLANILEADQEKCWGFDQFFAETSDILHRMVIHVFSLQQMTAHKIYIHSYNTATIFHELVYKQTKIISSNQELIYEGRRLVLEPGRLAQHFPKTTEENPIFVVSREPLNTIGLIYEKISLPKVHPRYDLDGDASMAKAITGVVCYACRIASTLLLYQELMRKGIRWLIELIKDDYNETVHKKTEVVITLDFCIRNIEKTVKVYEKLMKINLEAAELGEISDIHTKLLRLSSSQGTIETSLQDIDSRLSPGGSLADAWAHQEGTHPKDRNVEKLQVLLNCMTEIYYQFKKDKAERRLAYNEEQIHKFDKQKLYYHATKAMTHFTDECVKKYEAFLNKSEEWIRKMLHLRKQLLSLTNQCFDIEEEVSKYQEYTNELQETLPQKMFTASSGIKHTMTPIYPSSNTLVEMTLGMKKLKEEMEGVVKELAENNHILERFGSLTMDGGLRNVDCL

Angiopoietin-1 receptor = Angiopoietin-1 receptor (Homo sapiens, UniProt Q02763); assay: Binding affinity to recombinant full-length N-terminal His-FLAG-GST-tagged TEK (unknown origin) (771 to 1124 residues) expressed in baculovirus infected Sf9 insect cells incubated for 1 hr by TR-FRET assay
Sequence of Angiopoietin-1 receptor (Q02763 whole entry, the tested form may be a part): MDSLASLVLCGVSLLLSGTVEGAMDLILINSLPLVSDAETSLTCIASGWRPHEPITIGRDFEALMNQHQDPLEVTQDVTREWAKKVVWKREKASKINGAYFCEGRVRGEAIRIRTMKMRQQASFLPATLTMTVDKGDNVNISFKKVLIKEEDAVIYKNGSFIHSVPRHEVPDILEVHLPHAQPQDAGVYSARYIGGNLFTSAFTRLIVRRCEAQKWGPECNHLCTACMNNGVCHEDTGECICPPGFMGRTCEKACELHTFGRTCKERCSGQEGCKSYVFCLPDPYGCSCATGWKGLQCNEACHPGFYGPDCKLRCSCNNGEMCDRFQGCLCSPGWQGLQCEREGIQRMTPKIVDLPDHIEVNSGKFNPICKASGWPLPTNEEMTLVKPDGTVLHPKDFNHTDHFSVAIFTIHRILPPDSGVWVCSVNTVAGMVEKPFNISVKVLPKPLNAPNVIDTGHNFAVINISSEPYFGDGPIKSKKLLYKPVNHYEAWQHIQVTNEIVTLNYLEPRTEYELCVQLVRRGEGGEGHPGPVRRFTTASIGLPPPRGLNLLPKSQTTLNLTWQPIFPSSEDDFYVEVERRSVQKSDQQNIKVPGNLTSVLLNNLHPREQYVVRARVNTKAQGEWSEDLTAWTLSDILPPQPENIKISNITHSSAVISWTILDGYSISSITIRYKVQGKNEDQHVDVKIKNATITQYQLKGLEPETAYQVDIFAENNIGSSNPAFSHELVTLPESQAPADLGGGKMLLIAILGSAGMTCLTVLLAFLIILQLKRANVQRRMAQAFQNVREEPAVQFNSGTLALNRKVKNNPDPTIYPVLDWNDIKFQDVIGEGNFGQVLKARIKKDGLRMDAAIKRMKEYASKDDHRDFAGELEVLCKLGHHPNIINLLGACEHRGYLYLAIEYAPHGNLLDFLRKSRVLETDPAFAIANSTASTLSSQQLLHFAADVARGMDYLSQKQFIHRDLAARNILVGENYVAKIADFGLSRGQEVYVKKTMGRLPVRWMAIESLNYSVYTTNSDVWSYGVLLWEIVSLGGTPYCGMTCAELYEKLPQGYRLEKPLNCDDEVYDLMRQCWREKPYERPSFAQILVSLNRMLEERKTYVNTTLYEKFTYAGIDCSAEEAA

[13] = target: Serine/threonine-protein kinase PAK 5 (Homo sapiens, UniProt Q9P286); assay: Binding affinity to recombinant N-terminal His-FLAG-GST-tagged PAK7 (unknown origin) (425 to 719 residues) expressed in baculovirus infected Sf9 insect cells incubated for 1 hr by TR-FRET assay
Ephrin type-A receptor 1 = Ephrin type-A receptor 1 (Homo sapiens, UniProt P21709); assay: Binding affinity to recombinant full-length N-terminal His-FLAG-GST-tagged EPHA1 (unknown origin) (586 to 976 residues) expressed in baculovirus infected Sf9 insect cells incubated for 1 hr by TR-FRET assay
Rhodopsin kinase GRK1 = Rhodopsin kinase GRK1 (Homo sapiens, UniProt Q15835); assay: Binding affinity to recombinant full-length N-terminal His-FLAG-GST-tagged GRK1 (unknown origin) expressed in baculovirus infected Sf9 insect cells incubated for 1 hr by TR-FRET assay
Focal adhesion kinase 1 = Focal adhesion kinase 1 (Homo sapiens, UniProt Q05397); assay: Binding affinity to recombinant human full length N-terminal GST-tagged PTK2 expressed in baculovirus expression system incubated for 1 hr by TR-FRET assay
Myosin-IIIb = Myosin-IIIb (Homo sapiens, UniProt Q8WXR4); assay: Binding affinity to recombinant full-length N-terminal His-FLAG-GST-tagged MYO3B (unknown origin) (1 to 362 residues) expressed in baculovirus infected Sf9 insect cells incubated for 1 hr by TR-FRET assay
[14] = target: Epithelial discoidin domain-containing receptor 1 (Homo sapiens, UniProt Q08345); assay: Binding affinity to recombinant N-terminal His-FLAG-GST-tagged DDR1 (unknown origin) (444 to 876 residues) expressed in baculovirus infected Sf9 insect cells incubated for 1 hr by TR-FRET assay
[15] = target: Serine/threonine-protein kinase TAO3 (Homo sapiens, UniProt Q9H2K8); assay: Binding affinity to recombinant human full length N-terminal GST-tagged TAOK3 expressed in baculovirus expression system using PKC-epsilon peptide as substrate incubated for 1 hr by TR-FRET assay
[16] = Binding affinity to recombinant human full-length N-terminal […] MKNK1 T334D mutant expressed in baculovirus expression system using RS peptide as substrate incubated for 1 hr by TR-FRET assay
[17] = target: NUAK family SNF1-like kinase 2 (Homo sapiens, UniProt Q9H093); assay: Binding affinity to recombinant full-length N-terminal His-FLAG-tagged NUAK2 (unknown origin) expressed in baculovirus infected Sf9 insect cells incubated for 1 hr by TR-FRET assay
[18] = target: Serine/threonine-protein kinase 32B (Homo sapiens, UniProt Q9NY57); assay: Binding affinity to recombinant full-length N-terminal His-FLAG-GST-tagged STK32B (unknown origin) expressed in baculovirus infected Sf9 insect cells incubated for 1 hr by TR-FRET assay
[19] = target: Death-associated protein kinase 3 (Homo sapiens, UniProt O43293); assay: Binding affinity to recombinant full-length N-terminal His-FLAG-GST-tagged DAPK3 (unknown origin) expressed in baculovirus infected Sf9 insect cells incubated for 1 hr by TR-FRET assay

## CO[C@@H]1[C@H](NCCOCCOCCOCCNC(=O)CCC2=[N+]3C(=Cc4c(C)cc(C)n4[B-]3(F)F)C=C2)C[C@H]2O[C@]1(C)n1c3ccccc3c3c4c(c5c6ccccc6n2c5c31)C(=O)NC4
[1]
  Kd: 25 nM
[2]
  Kd: 113 nM
[3]
  Kd: 23 nM
[4]
  Kd: 2 nM
[5]
  Kd: 749 nM
[6]
  Kd: 148 nM
[7]
  Kd: 107 nM
[8]
  Kd: 193 nM
[9]
  Kd: 258 nM
[10]
  Kd: 13 nM
[11]
  Kd: 193 nM
[12]
  Kd: 17 nM
Angiopoietin-1 receptor
  Kd: 395 nM
[13]
  Kd: 40 nM
Ephrin type-A receptor 1
  Kd: 586 nM
Rhodopsin kinase GRK1
  Kd: 122 nM
Focal adhesion kinase 1
  Kd: 401 nM
Myosin-IIIb
  Kd: 328 nM
[14]
  Kd: 674 nM
[15]
  Kd: 360 nM
[16]
  Kd: 28 nM
[17]
  Kd: 10 nM
[18]
  Kd: 446 nM
[19]
  Kd: 41 nM

## CO[C@@H]1[C@H](N(C)CCOCCOCCOCCNC(=O)CCC2=[N+]3C(=Cc4c(C)cc(C)n4[B-]3(F)F)C=C2)C[C@H]2O[C@]1(C)n1c3ccccc3c3c4c(c5c6ccccc6n2c5c31)C(=O)NC4
[1]
  Kd: 15 nM
[2]
  Kd: 306 nM
[3]
  Kd: 75 nM
[4]
  Kd: 3 nM
[5]
  Kd: 537 nM
[6]
  Kd: 154 nM
[7]
  Kd: 108 nM
[8]
  Kd: 135 nM
[9]
  Kd: 367 nM
[10]
  Kd: 15 nM
[11]
  Kd: 193 nM
[12]
  Kd: 9 nM
Angiopoietin-1 receptor
  Kd: 408 nM
[13]
  Kd: 53 nM
Ephrin type-A receptor 1
  Kd: 588 nM
Rhodopsin kinase GRK1
  Kd: 109 nM
Focal adhesion kinase 1
  Kd: 308 nM
Myosin-IIIb
  Kd: 294 nM
[14]
  Kd: 888 nM
[15]
  Kd: 293 nM
[16]
  Kd: 37 nM
[17]
  Kd: 11 nM
[18]
  Kd: 984 nM
[19]
  Kd: 25 nM
